Data reported in patent US4387098A, “Imidazo[1,2-a]quinoline derivatives useful as anxiolytics” (Roussel Uclaf, priority 1981, dated 1983).

Tested on: not listed separately
Test: anxiolytic activity, one-day lick shock method of Vogel et al
Assay type: in vivo
Settings: po, 24 h, orally, read-out: minimum effective dose (MED) at which there was an observed increase in shocks above control
Experimental: B. Screening for anxiolytic activity was carried out by the one-day lick shock method of Vogel et al [Psychopharmacologia, 1971 Vol. 21, p. 1]. The values of Table VI are the minimum effective doses (MED) in mg/kg orally at which there was an observed increase in shocks above control.

Structure (SMILES) | minimal effective dose
CCc1ccc2c(c1)c(OC)cc1nc(C(=O)c3ccccc3)cn12 [Example 1] | 20 mg/kg
COc1cc2nc(C(=O)c3ccccc3)cn2c2ccccc12 [Example 4, (5-methoxy-imidazo[1,2-a]quinolin-2-yl)-phenyl-methanone] | 25 mg/kg
CCc1ccc2c(c1)c(OC)cc1nc(C(C)=O)cn12 [Example 6] | 20 mg/kg
COc1cc2nc(C(=O)c3ccccc3)cn2c2ccc(C)cc12 [Example 13] | 25 mg/kg
COc1cc2nc(C(=O)c3ccccc3)cn2c2ccc(C(C)C)cc12 [Example 15] | 10 mg/kg
CCCCc1ccc2c(c1)c(OC)cc1nc(C(=O)c3ccccc3)cn12 [Example 16] | 25 mg/kg

Molecular target: benzodiazepine receptor
Test: benzodiazepine receptor affinity, [^3 H] flunitrazepam radio receptor binding (modified Squires and Braestrup) on rat forebrain membrane preparations
Settings: 0.6 nM [^3 H] flunitrazepam, read-out: IC50, inhibition of the specific binding of [^3 H] flunitrazepam by 50%
Experimental: A. The affinity of the compounds for the benzodiazepine receptor was assessed using the radioligand [^3 H] flunitrazepam and modifications of the original radio receptor binding method of Squires and Braestrup (Nature, 1977, Vol. 266, p. 732). The values of Table V are nanomolar concentrations of test compound which inhibited the specific binding of 0.6 nM[^3 H] flunitrazepam to rat forebrain membrane preparations by 50% (IC50 nM).

Structure (SMILES) | IC50
CCc1ccc2c(c1)c(OC)cc1nc(C(=O)c3ccccc3)cn12 [Example 1] | 14 nM
CSc1cc2nc(C(=O)c3ccccc3)cn2c2ccccc12 [Example 2, (5-methylthio-imidazo[1,2-a]quinolin-2-yl)-phenyl-methanone] | 500 nM
COc1ccc2c(OC)cc3nc(C(=O)c4ccccc4)cn3c2c1 [Example 3] | 5000 nM
COc1cc2nc(C(=O)c3ccccc3)cn2c2ccccc12 [Example 4, (5-methoxy-imidazo[1,2-a]quinolin-2-yl)-phenyl-methanone] | 27 nM
CCc1ccc2c(c1)c(OC)cc1nc(C(C)=O)cn12 [Example 6] | 1300 nM
COc1cc2nc(C(=O)c3ccccc3)cn2c2ccc(Cl)cc12 [Example 7] | 600 nM
CC(C)Oc1cc2nc(C(=O)c3ccccc3)cn2c2ccccc12 [Example 8, (5-isopropoxy-imidazo[1,2-a]quinolin-2-yl)-phenyl-methanone] | 470 nM
CCOc1cc2nc(C(=O)c3ccccc3)cn2c2ccccc12 [Example 9] | 540 nM
CCCCOc1cc2nc(C(=O)c3ccccc3)cn2c2ccccc12 [Example 10] | 1000 nM
CCc1ccc(C(=O)c2cn3c(cc(OC)c4ccccc43)n2)cc1 [Example 11, (4-ethyl-phenyl)(5-methoxy-imidazo[1,2-a]quinolin-2-yl)-methanone] | 67 nM
CCCOc1cc2nc(C(=O)c3ccccc3)cn2c2ccccc12 [Example 12] | 1000 nM
COc1cc2nc(C(=O)c3ccccc3)cn2c2ccc(C)cc12 [Example 13] | 21 nM
COc1ccc2c(c1)c(OC)cc1nc(C(=O)c3ccccc3)cn12 [Example 14] | 51 nM
COc1cc2nc(C(=O)c3ccccc3)cn2c2ccc(C(C)C)cc12 [Example 15] | 25 nM
CCCCc1ccc2c(c1)c(OC)cc1nc(C(=O)c3ccccc3)cn12 [Example 16] | 57 nM
COc1cc2nc(C(=O)c3ccc(C)cc3)cn2c2ccccc12 [Example 17] | 19 nM
COc1ccc(C(=O)c2cn3c(cc(OC)c4ccccc43)n2)cc1 [Example 18] | 37 nM
COc1cc2nc(C(=O)c3ccccc3)cn2c2c(OC)cccc12 [Example 19] | 630 nM
COc1cc2nc(C(=O)c3ccc(Cl)cc3)cn2c2ccccc12 [Example 20] | 96 nM
COc1cc2nc(C(=O)c3cccs3)cn2c2ccccc12 [Example 21] | 24 nM
COc1cc2nc(C(=O)c3ccccc3)cn2c2cc(Cl)ccc12 [Example 22] | 340 nM
COc1cc2nc(C(=O)c3ccccc3)cn2c2c(Cl)cccc12 [Example 23] | 132 nM
COc1cc2nc(C(=O)c3ccccc3)cn2c2cc(C)ccc12 [Example 24] | 290 nM
COc1cc2nc(C(=O)c3ccccc3)cn2c2cccc(C)c12 [Example 25] | 11 nM
COc1cc2nc(C(=O)c3ccccc3)cn2c2ccc(C3CCCCC3)cc12 [Example 26] | 10000 nM
COc1cc2nc(C(=O)c3ccccc3)cn2c2ccc(Oc3ccccc3)cc12 [Example 27] | 210 nM
CCc1ccc2c(c1)c(OC)cc1nc(C(=O)c3ccc(OC)cc3)cn12 [Example 28] | 30 nM
CCc1ccc(C(=O)c2cn3c(cc(OC)c4cc(CC)ccc43)n2)cc1 [Example 29] | 51 nM
CCc1ccc2c(c1)c(OC)cc1nc(C(=O)c3ccccn3)cn12 [Example 30] | 92 nM
COc1cc2nc(C(=O)c3ccccc3)cn2c2ccc(F)cc12 [Example 31] | 74 nM
